Patent US5609749A, “Electrochemical assay method with novel p-phenylenediamine compound” (Mochida Pharmaceutical Co., Ltd., priority 1993, dated 1997)

Experiments:
hCG = assay: Measurement of hCG in whole blood with specific binding assay device (MEDIA method), freeze-dried electron mediator member; parameters: species or system human; conditions: hCG 0 vs 1,000 IU/l whole blood, -150 mV
Procedure: The specific binding assay device shown in FIGS. 2 and 3 was constructed, and concentration of hCG in samples was measured using the device. The HRPO-HM81 obtained in the above step (1) was diluted with a phosphate buffer (pH 6.0) containing 5% normal rabbit serum (NRS), 10% saccharose and 0.1M NaCl to prepare a solution having a peroxidase activity of 0.63 U/ml. Next, 140 μl of the solution was spotted on a circular filter paper piece of 12 mm in diameter punched out from glass fiber filter paper (GA100, manufactured by Advantech Toyo) and then freeze-dried to obtain an HRPO-HM81 freeze-dry member to be used as the labeled antibody-impregnatedmember 14. The THEPD obtained in Synthesis Example 3 was dissolved in a phosphate buffer (pH 6.0) containing 0.1M NaCl to prepare a 5.0 mM solution. Next, 140 μl of the solution was spotted on a circular filter paper piece of 12 mm in diameter punched out from glass fiber filter paper (GA100, manufactured by Advantech Toyo) and then freeze-dried to obtain a THEPD freeze-dry member to be used as the electron mediator-impregnated member 16 of the present invention. The TEPD obtained in Synthesis Example 1 was dissolved in a phosphate buffer (pH 6.0) containing 1M NaCl to prepare a 5.0 mM solution. […]

[1] = Measurement of vapor pressures (gas flow method); type: physicochemical; conditions: for vapor pressure: gas flow method
Procedure: Measurement of vapor pressures of p-phenylenediamine(PPD), N,N,N',N'-tetramethyl-p-phenylenediamine (TMPD), TEPD, TCPD, THEPD and TDHPD
The PPD(manufactured by Wakoh Junyaku K.K), TMPD (manufactured by Tokyo Kasei K.K), further, TEPD, TCPD, THEPD and TDHPO obtained in the course of the procedures of Synthesis Examples 1 to 4 were checked for their vapor pressures.
Vapor densities (amount of evaporation/volume) of the solid samples (PPD, TMPD, TEPD, TCPD, THEPD and TDHPD) were measured by contacting each sample heated to a predetermined temperature with a stream of carrier gas (nitrogen) and saturating the sample with vapor, and vapor pressures of TEPD and THEPD were calculated from the data on an assumption that the vapor follows the law of ideal gas (gas flow method). The vapor density was calculated by measuring evaporation rate (loss rate) of each sample using an electric balance, and the carrier gas flow rate using a flow meter.
The vapor pressure was calculated from the vapor density based on the following formula.
In the above formula, P represents vapor pressure (mmHg), k represents evaporation rate (mg/min), v represents carrier gas flow rate (ml/min), k/v represents vapor density (mg/ml), M represents molecular weight of each sample, π represents pressure of the system (mmHg) and V represents molar volume of carrier gas (l/mol).

Glucose oxidase (GOD) = molecular target: T1, Glucose oxidase (GOD) (Aspergillus niger, UniProt P13006); assay: Electron transfer activity 1: GOD-glucose-compound, current at +300 mV; type: biochemical; conditions: +300 mV vs Ag/AgCl, pH 6.0
T1 construct: purchased Boehringer-Mannheim
Procedure: Measurement of electron transfer activities of TEPD, TCPD, THEPD, TDHPD, HTEPD, N,N'-BHPD, N,N-BHDPD, N,N'-BHDPD, and p-phenylenediamine derivatives having substituted amino group by reacting p-phenylenediamine with propyleneoxide--1
Glucose oxidase (GOD, manufactured by Boehringer-Mannheim) was dissolved in 0.1M phosphate buffer (pH 6.0) containing 0.1M NaCl to prepare 0M and 4.0×10^-4 M GOD solutions. Also, glucose (manufactured by Junsei Kagaku) was dissolved in the same buffer to prepare a 1.5M solution. In the same manner, each of the TEPD, TCPD, THEPD, TDHPD, HTEPD, N,N-BHDPD, N,N'-BHPD, N,N'-BHDPD, and p-phenylenediamine derivatives having substituted amino group by reacting p-phenylenediamine with propyleneoxide obtained in Synthesis Examples 1 to 9 was dissolved in the same buffer to prepare a 5.0×10^-3 M solution.
Each of these solutions was mixed in 0.1M phosphate buffer (pH 6.0) containing 0.1M NaCl in the following mixing ratio just before the measurement to prepare solutions of the following compositions A and B, and current was measured continuously in the presence (composition A) or absence (composition B) of GOD.
Using the same apparatus of Test Example 2, electric current was measured in the presence (composition A) or absence (composition B) of GOD for 10 minutes under application of potential of +300 mV (vs Ag/AgCl) to the working electrode.

T1 sequence (P13006 17-605): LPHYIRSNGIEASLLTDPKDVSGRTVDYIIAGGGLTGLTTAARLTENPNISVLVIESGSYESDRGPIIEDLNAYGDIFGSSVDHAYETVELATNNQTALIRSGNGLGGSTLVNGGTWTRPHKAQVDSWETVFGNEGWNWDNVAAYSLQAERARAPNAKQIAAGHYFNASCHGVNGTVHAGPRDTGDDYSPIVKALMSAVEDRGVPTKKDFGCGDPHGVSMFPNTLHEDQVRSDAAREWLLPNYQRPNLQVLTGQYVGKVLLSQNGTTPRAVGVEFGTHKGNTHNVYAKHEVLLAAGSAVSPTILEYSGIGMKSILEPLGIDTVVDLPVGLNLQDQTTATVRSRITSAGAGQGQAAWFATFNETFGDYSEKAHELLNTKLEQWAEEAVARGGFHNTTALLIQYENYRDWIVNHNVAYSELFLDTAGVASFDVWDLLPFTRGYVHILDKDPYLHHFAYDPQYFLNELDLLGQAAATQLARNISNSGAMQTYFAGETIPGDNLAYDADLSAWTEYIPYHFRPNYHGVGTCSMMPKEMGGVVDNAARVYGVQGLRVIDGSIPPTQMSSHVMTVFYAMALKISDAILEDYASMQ

## CCN(CC)c1ccc(N(CC)CC)cc1.Cl.Cl [TEPD, N,N,N',N'-tetraethyl-p-phenylenediamine dihydrochloride, reference compound]
hCG
  electric current response to hCG concentration: the electric current did not increase in response to the concentration of hCG
[1]; at 25° C.
  vapor pressure: 4.2×10^-4 mmHg
Glucose oxidase (GOD)
  function as electron mediator between GOD and the electrode: function as a reversible electron mediator between GOD and the electrode

## Cl.Cl.OCCN(CCO)c1ccc(N(CCO)CCO)cc1 [THEPD, N,N,N',N'-tetrakis-(2'-hydroxyethyl)-p-phenylenediamine dihydrochloride]
hCG
  electric current response to hCG concentration: the reduction current became high in response to the concentration of hCG
[1]; at 25° C.
  vapor pressure lower than that of TEPD: about 300 times
  vapor pressure: 1.3×10^-6 mmHg
[1]; compared with PPD, TMPD and TEPD, concluded from vapor pressures
  property in drying (freeze-drying, vacuum drying, air-drying) and stability of dried states: superior to those of PPD, TMPD and TEPD
Glucose oxidase (GOD)
  function as electron mediator between GOD and the electrode: function as a reversible electron mediator between GOD and the electrode
